Data taken from ChEMBL document CHEMBL1157539, “Thousands of chemical starting points for antimalarial lead identification” (Nature, 2010).

What follows are compounds tested on Plasmodium falciparum (assay: GSK_TCMDC: Inhibition of Plasmodium falciparum 3D7 in whole erythrocytes, using parasite LDH activity as an index of growth.). Details: not given.
Format: functional, organism-based

Point of comparison: `CC(C)(C)c1cc(/C=C/C(=O)NC2CCC(CN3CCC(c4c[nH]c5ccccc45)CC3)CC2)cc(C(C)(C)C)c1O` (centres undefined), XC50 719 nM. Against it:
- O=C(C=C1c2ccccc2-c2ccccc21)NC1CCC(CN2CCC(c3c[nH]c4ccccc34)CC2)CC1 (centres undefined) — within 1.5-fold, 697 nM
- CCC(CC(NCCCCNC(=O)c1ccc(NC(=O)c2ccc(Cl)cc2)cc1)c1ccccc1)c1ccccc1OC (centres undefined) — within 1.5-fold, 666 nM

Same assay, conditions: Plasmodium falciparum, 3D7

Point of comparison: `C=CCn1c(Cc2ccccc2)nnc1Sc1ccc(C#N)c([N+](=O)[O-])c1`, XC50 1030 nM. Against it:
- COc1ccc(-c2cccc(NC(=O)c3cccc(Cl)c3)c2)cc1CN1CCC(O)CC1 — within 1.5-fold, 791 nM
- Nc1ncc(Cc2ccc3c(ccc4ccccc43)c2)c(N)n1 — within 1.5-fold, 758 nM
- Cc1cc(=O)c2cc(Oc3cccc(OC(F)(F)F)c3)ccc2[nH]1 — within 1.5-fold, 862 nM
- O=C(CCC1CCCC1)N(Cc1ccc(-c2ccc(CNCCc3ccccc3)cc2)cc1)C1CCCNC1 (centres undefined) — within 1.5-fold, 1220 nM
- CC(C)(C)OC(=O)NCC(=O)N(Cc1ccccc1)Cc1ccccc1 — 8.3-fold lower, 124 nM
- Cc1ccc2c(c1)NCC21CCN(C[C@@H](O)C2CCN(c3cc(C#N)ccn3)CC2)CC1C (some centres undefined) — 1.7-fold lower, 606 nM
- Cc1cc(NCCC(=O)NCCOc2ccccc2)nc(NCCOc2ccccc2)n1 — within 1.5-fold, 867 nM
- COc1ccc(CCCCN2C(=O)C(c3ccccc3)(c3ccccc3)N=C2N)cc1 — within 1.5-fold, 858 nM
- CC1CCC(C(C)C)C(OC(=O)CSc2nnc3c(n2)[nH]c2ccccc23)C1 (centres undefined) — within 1.5-fold, 931 nM
- O=C(NCCCCN1CCC(c2ccc3c(c2OCCOCCO)CCCC3)CC1)c1ccc(-c2ccc(C(F)(F)F)cc2)cc1 — 3.7-fold lower, 275 nM
- COc1cc(OC)cc(-c2nn(-c3ccc([N+](=O)[O-])cc3Cl)c(=S)n2Cc2ccco2)c1 — within 1.5-fold, 838 nM
- O=C(C1CC1c1ccccc1)N(Cc1ccc(-c2ccc(CNCCc3ccccc3)cc2)cc1)C1CCNCC1 (centres undefined) — within 1.5-fold, 1110 nM
- O=C1c2cc(I)ccc2SC1c1ccccc1 (centres undefined) — within 1.5-fold, 817 nM
- COc1ccc2nccc([C@@H](O)CN3CCC(NCCOc4ccc(F)cc4F)CC3)c2c1 — 7.3-fold lower, 141 nM
- N#Cc1ccc2c(c1)CCN(CCC1CCC(NC(=O)c3ccc(-c4ccccc4)s3)CC1)CC2 (centres undefined) — 1.5-fold lower, 684 nM
- O=C(/C=C/c1ccc(-c2nc3ccc(Cl)cc3[nH]2)cc1)NC1CCN(Cc2ccccc2)CC1 — 1.7-fold lower, 610 nM
- COC(=O)c1cccc(NC(=O)NC2CCN(c3ccnc(NCc4ccc(F)cc4)n3)CC2)c1 — within 1.5-fold, 809 nM
- CC(C)(C)c1ccc(-c2cc3c(ccc4nc(N)nc(N)c43)[nH]2)cc1 — 9.1-fold lower, 113 nM
- Cc1[nH]c(C)c(-c2ccc(OCCCc3ccccn3)cc2)c(=O)c1Br — 4.9-fold lower, 212 nM
- CN=C(N)c1ccc(NC(=O)C=Cc2ccc(C(=O)Nc3ccc(C(N)=NC)cc3)cc2)cc1 — 33-fold lower, 31.4 nM
- CCCCNS(=O)(=O)c1ccc(NC(=O)c2cc([N+](=O)[O-])ccc2Cl)cc1 — within 1.5-fold, 902 nM
- O=C(Nc1cccc(C2=NCCN2)c1)Nc1cccc(C2=NCCN2)c1 [IMIDOCARB] — 2.5-fold lower, 419 nM
- CC[C@H]1CN2CC[C@H]1C[C@H]2[C@H](O)c1cc(N2CCCC2)nc2ccc(OC)cc12 — 23-fold lower, 44.8 nM
- O=C(NCc1ccc(F)cc1)Nc1cccc(-c2ccc(-c3nc4ccccc4[nH]3)cc2)c1 — 6.2-fold lower, 165 nM
- Cc1cc(N(CCCN(C)C)Cc2cc(F)cc(F)c2)nc(Nc2ccc(Cl)cc2)n1 — 1.9-fold lower, 536 nM
- CCOC(=O)c1nc(-c2cccc(F)c2)[nH]c1N — within 1.5-fold, 748 nM
- Cc1[nH]c(C)c(-c2ccc(C#Cc3ccc(F)cc3F)cc2)c(=O)c1Br — 34-fold lower, 30.1 nM
- O=C(Nc1cccc(C(F)(F)F)c1)c1ccc(S(=O)(=O)NC2CCN(CC3CCCCC3)C2)cc1 (centres undefined) — within 1.5-fold, 789 nM
- O=C(/C=C/c1ccc(Cl)c(Cl)c1)NCCCCCN1CCC(NC(=O)Nc2ccc(C(F)(F)F)cc2)CC1 — within 1.5-fold, 750 nM
- O=C(Nc1ccc2c(c1)CCC2)c1ccc(N2CCN(c3ccncc3)CC2)cn1 — within 1.5-fold, 862 nM
- O=C1C2C(c3ccc(Cl)c(Cl)c3)N3CC(OCc4ccccc4)CC3(C(=O)O)C2C(=O)N1c1ccc(Br)cc1 (centres undefined) — 3.1-fold lower, 336 nM
- O=C(NCC1Cc2cc(Oc3ccccc3)ccc2O1)c1ccc([N+](=O)[O-])o1 (centres undefined) — within 1.5-fold, 917 nM
- Cc1[nH]c(C)c(-c2ccc(-c3cccc(C(F)(F)F)c3)nc2)c(=O)c1Br — 7.4-fold lower, 140 nM
- CNC(=O)/C=C/c1cc(NC(=O)Nc2cc(C)nc3c(F)cccc23)ccc1OC — within 1.5-fold, 908 nM
- c1csc(-c2nc(NCC3CCCO3)ncc2-c2ccsc2)n1 (centres undefined) — 2.1-fold lower, 487 nM
- O=C(Nc1ccc(C(=O)Nc2cccc(C3=NCCN3)c2)cc1)Nc1ccc(C2=NCCN2)cc1 — 11-fold lower, 96 nM
- COc1cccc(NC(=O)NC2CCN(CCCCCNC(=O)/C=C/c3ccc(Cl)c(Cl)c3)CC2)c1 — within 1.5-fold, 777 nM
- CCCc1cc(N2CCC(c3ccccc3)(N3CCCCC3)CC2)nc(Nc2ccc(OC)cc2)n1 — within 1.5-fold, 1090 nM
- CCCCCN1CCC(NS(=O)(=O)c2cccc(C(=O)Nc3cccc(C(F)(F)F)c3)c2)C1 (centres undefined) — within 1.5-fold, 826 nM
- CN(C)c1ccc2c(c1)Sc1cc(N(C)C)ccc1N2C(=O)CCCC(=O)O — within 1.5-fold, 802 nM
- Cc1nc(C(=O)N2CCCC[C@H]2CNC(=O)c2ccc(-c3ccc(N4CCCC4=O)cc3C)cc2)c(-c2ccc(F)cc2)s1 — 2.2-fold lower, 459 nM
- Cc1cc(N[C@@H](Cc2ccccc2)C(=O)Nc2ccccc2)nc(NCC2CCCCC2)n1 — within 1.5-fold, 761 nM
- O=C(/C=C/c1ccc(Cl)c(Cl)c1)N1CCC2CC(N3CCC(c4c[nH]c5ccccc45)CC3)CCC2C1 (centres undefined) — 6-fold lower, 171 nM
- COc1ccc(CCN2CCC(NCc3cccc(N(C)C)c3)CC2)cc1 — within 1.5-fold, 1320 nM
- CCOC(=O)c1ccc2[nH]c(-c3ccc(C(=O)NCc4ccc(C(C)(C)C)cc4)cc3)nc2c1 — within 1.5-fold, 847 nM
- O=C(/C=C/c1ccc(C(F)(F)F)cc1)NCCCCCN1CCCN(C(=O)Nc2ccc(Cl)c(C(F)(F)F)c2)CC1 — 5.1-fold lower, 202 nM
- CC(C)(C)c1cc(/C=C/C(=O)NC2CCC(CN3CCC(c4c[nH]c5ccccc45)CC3)CC2)cc(C(C)(C)C)c1O (centres undefined) — within 1.5-fold, 705 nM
- CCCCNC(c1ccc(Cl)cc1)C(O)c1ccc(Cl)cc1 (centres undefined) — 1.7-fold lower, 619 nM
- O=C(/C=C/c1ccc(Cl)c(Cl)c1)NCCCCCN1CCC(NC(=O)NC2CCCC2)CC1 — 1.6-fold lower, 631 nM
- Cn1cccc1C(=O)NCC(CCNc1cc(=O)c2ccccc2[nH]1)NCc1cc(Br)cc(Br)c1 (centres undefined) — within 1.5-fold, 911 nM
- O=C(N/N=C/c1nc2ccccc2[nH]1)c1cccc([N+](=O)[O-])c1 — 1.6-fold lower, 628 nM
- COc1ccc2ncc(F)c([C@H](O)CN3CCC(NCc4ccc5c(c4)NC(=O)CO5)CC3)c2c1 — 6-fold lower, 172 nM
- Oc1ccc(Cl)cc1CN1CCC2(CCCN(CC3CCC3)C2)C1 (centres undefined) — 2.8-fold lower, 368 nM
- CCn1cc2c3c(cc(C(=O)N[C@@H](Cc4ccccc4)[C@H](O)CNC4CCOCC4)cc31)N(C)S(=O)(=O)CC2 — 5-fold lower, 208 nM
- Cc1ccc(-n2nc(C)c3c2NC(=O)CSC3c2ccsc2)cc1 (centres undefined) — within 1.5-fold, 1010 nM
- Cc1ccc(Nc2nc(N)c3ccccc3n2)cc1 — within 1.5-fold, 839 nM
- CSc1nnc2n(Cc3ccccc3)c(=O)c3c(n12)-c1ccccc1CC31CCCCC1 — within 1.5-fold, 969 nM
- O=C(/C=C/c1cc(C(F)(F)F)ccc1F)NCCCCCN1CCC(c2c[nH]c3ccccc23)CC1 — within 1.5-fold, 1130 nM
- CC(C)NC(=O)c1cccc(-c2cccc(OCCN3CCSCC3c3ccccc3)c2)c1 (centres undefined) — within 1.5-fold, 1010 nM
- Nc1nccc2ccc(-c3ccc(Oc4ccccc4)cc3)cc12 — 3.7-fold lower, 278 nM
- c1ccc2c(CNc3ccnc(NCc4cccc5ccccc45)n3)cccc2c1 — 1.8-fold lower, 559 nM
- O=C(Nc1cccc(-c2cccc(-c3nc4cc(C(F)(F)F)ccc4[nH]3)c2)c1)c1csnn1 — 4.3-fold lower, 238 nM
- O=C(Cc1c[nH]cn1)Nc1ccc(-c2ccc(-c3nc4cc(C(F)(F)F)ccc4[nH]3)s2)cc1 — 1.6-fold lower, 657 nM
- CCN1CCC(N(CCCCCCCCc2ccc(C(F)(F)F)cc2)C(=O)Cn2c(CCc3cccc(F)c3F)cc(=O)c3ccccc32)CC1 — within 1.5-fold, 1200 nM
- COc1cccc(-c2[nH]c3ccccc3c2CN2CCC(c3c(C)cccc3C)CC2)c1 — within 1.5-fold, 1020 nM
- COCCCNC(=O)[C@H]1CNCCN1C(=O)c1ccccc1 — within 1.5-fold, 802 nM
- CCCCCCNc1cc(C)nc2ccc(OC)cc12 — 1.9-fold lower, 552 nM
- COc1ccc(C(=O)N2CCC3(CC2)C(=O)N(CC(=O)NC2CCCCC2)CN3c2ccccc2)c(OC)c1 — 4.6-fold lower, 224 nM
- CC(CNc1nc(NCC(c2ccccc2)c2ccccc2)c2nc[nH]c2n1)c1ccccc1 (centres undefined) — within 1.5-fold, 948 nM
- COc1ccccc1-n1c(SCC(=O)Nc2ccccc2F)nc2cccnc21 — 2.5-fold lower, 417 nM
- CN1CCN(c2ccnc3ccc(NC(=O)Nc4ccc5ccccc5c4)cc23)CC1 — 13-fold lower, 76.6 nM
- CC(C)(C)c1ccc(-c2nnc(N)nc2N)cc1 — within 1.5-fold, 862 nM
- Cc1onc(-c2c(Cl)cccc2Cl)c1C(=O)NC1=NC(C)(C)ON1c1ccccc1 — within 1.5-fold, 1070 nM
- CC(C)[C@H](NC(=O)c1ccc(O)c(-c2ccc(Cl)c(Cl)c2)c1)C(=O)NC1CCCCCC1 — 4.6-fold lower, 224 nM
- Cc1n[nH]c2ccc(-c3cc(OC[C@@H](N)Cc4ccccc4)cnc3-c3ccc(OCc4cccc(F)c4)cc3)cc12 — within 1.5-fold, 730 nM
- COc1cc(Nc2ncc3c(C)nc(-c4cc5ccccc5[nH]4)n3n2)cc(OC)c1OC — within 1.5-fold, 1020 nM
- Cc1cccc2nc(-c3ccc(-c4ccc(NC(=O)CN5CCN(C)CC5)cc4)cc3)[nH]c12 — within 1.5-fold, 785 nM
- COc1cc(NC(=O)c2cccs2)c(OC)cc1NC(=O)Nc1cccc(Cl)c1 — within 1.5-fold, 1000 nM
- O=C(C=Cc1ccc(Cl)c(Cl)c1)NCCCCCN1CCC(CCCNC(=O)/C=C/c2ccccc2)CC1 — 1.7-fold lower, 592 nM
- COc1cccc(NC(=O)Nc2ccc(-c3oc(C(=O)NCC(c4ccccc4)N(C)C)cc3-c3ccncc3)cc2)c1 (centres undefined) — 1.8-fold higher, 1830 nM
- Cc1cc2cc(CNCCc3ccccc3Br)ccc2nc1N — 4.2-fold lower, 243 nM
- CCCOc1ccc(C(=O)Nc2nonc2-c2ccc(OC)c(OC)c2)cc1 — within 1.5-fold, 991 nM
- CC(=O)Oc1c(C2CCN(CCCCNC(=O)c3ccc(-c4ccc(C#N)cc4)cc3)CC2)ccc2c1CCCC2 — within 1.5-fold, 1130 nM
- O=C(Nc1ccc(Cl)cc1)NC1CCN(CCCCCNC(=O)C2CC2c2ccc(Cl)c(Cl)c2)CC1 (centres undefined) — 1.8-fold lower, 576 nM
- O=C(Nc1cc(F)c(F)c(-c2cccnc2)c1)N1CCc2cc(Cl)c(Cl)cc21 — within 1.5-fold, 844 nM
- CCCCCCCCCCS(=O)(=O)N[C@H](COCc1cccc(Oc2ccccc2)c1)COP(=O)(O)OC — within 1.5-fold, 1020 nM
- Fc1ccc2[nH]c(-c3ccc(-c4ccc(CNCC5CCCO5)cc4)cc3)nc2c1 (centres undefined) — 2.3-fold lower, 440 nM
- CC(CCCCCC(=O)Nc1ccc(CC(C)NCCc2cccc(Cl)c2)cc1)NCCc1cccc(Cl)c1 (centres undefined) — within 1.5-fold, 948 nM
- O=C(Nc1cccc(CN2CCCN(Cc3cccc(O)c3)CC2)c1)c1ccc(-c2ccccc2)cc1 — 1.6-fold lower, 641 nM
- OC1(CNCc2ccccc2)CCN(CCc2c[nH]c3ccc(F)cc23)CC1 — within 1.5-fold, 710 nM
- O=C(C=C1c2ccccc2-c2ccccc21)NC1CCC(CN2CCC(c3c[nH]c4ccccc34)CC2)CC1 (centres undefined) — within 1.5-fold, 795 nM
- CN(C)CCc1c[nH]c2ccc(C(=O)Nc3ccc(-c4ccncc4)cc3)cc12 — 1.8-fold lower, 567 nM
- Nc1c2ccccc2nc2cc(Cl)ccc12 — within 1.5-fold, 715 nM
- CC(C)c1cc(C(=O)N[C@@H](Cc2ccccc2)[C@H](O)CNC2CCCCC2)cc(N2CCCC2=O)c1 — 8.5-fold lower, 121 nM
- CCC(CC(NCCCCNC(=O)c1ccc(NC(=O)c2ccc(Cl)cc2)cc1)c1ccccc1)c1ccccc1OC (centres undefined) — within 1.5-fold, 792 nM
